Measurements from article PMC9921564, “Novel Indole-Containing Hybrids Derived from Millepachine: Synthesis, Biological Evaluation and Antitumor Mechanism Study” (Molecules, 2023).

Legend:
[1] = tested on: A549/CDDP (A549 cell line resistant to cisplatin); experiment: CCK-8 cytotoxicity, A549/CDDP; format: cell-based; conditions: Homo sapiens, 48 h, CCK-8, cisplatin-resistant, read-out: IC50, Mean ± SE, A549/CDDP
Method: (§1) Besides the high cytotoxicity, drug resistance is the other limiting factor of chemotherapeutics. In this study, the cytotoxicities of compound 14b towards five kinds of drug-resistant cancer cell lines were also evaluated. Except three kinds of cell lines that are resistant to three drugs commonly used in clinical practice, two kinds of cell lines that are resistant to MTAs were also evaluated.
(§2) A549 (non-small-cell-lung cancer cell line), Caski (human epithelial cervical cancer cell line), HepG2 (human liver carcinoma cell line), MCF-7 (human breast carcinoma cell line), C42B (human prostate cancer line C42B), L-02 (human normal hepatocytes), RWPE-1 (human prostate epithelial cells) and MCF-10A (human normal mammary epithelial cells) were obtained from National Collection of Authenticated Cell Cultures (Shanghai, China). […]
(§3) After 24 h, the medium containing different concentrations of tested compounds were added for another 48 h. […] The optical density was recorded with a microplate reader at 570 nm (Thermo Scientific, Varioskan LUX). All the experiments were repeated independently at least three times and the IC50 values were calculated […]

[2] = tested on: MCF-7/DOX (MCF-7 cell line resistant to doxorubicin); experiment: CCK-8 cytotoxicity, MCF-7/DOX; format: cell-based; conditions: Homo sapiens, MCF7-DOX; 48 h, CCK-8, doxorubicin-resistant; read-out: IC50, Mean ± SE, MCF-7/DOX
Method: as §1, §2, §3
The fluorescence intensity enhancement (emission wavelength is 410 nm, excitation wavelength is 340 nm) was recorded every 60 s for 60 min in a multifunction microplate reader (Molecular Devices, Flex Station 3). […]

## COc1ccc(C(=O)c2ccc3c(ccn3C)c2)c2c1C=CC(C)(C)O2 [compound 14b, (5-methoxy-2,2-dimethyl-2H-chromen-8-yl)(1-methyl-1H-indol-5-yl)methanone]
[1]
  IC50: 35 ± 21 nM
[2]
  IC50: 51 ± 24 nM
